Some test systems named below: SK-MEL-2 melanoma; HCC-2998 colon; MDA-MB-435; NCI-H460 lung; T-47D breast; OVCAR-3 ovarian; OVCAR-8 ovarian; OVCAR-5 ovarian; SR leukemia; BT-549 breast.
What all share (assay): inhibition of tumour cell growth, NCI panel, 48 h

Several values for one entry are separate records, joined by “and”; a condition that tells them apart may be missing. Equal entries are not always repeated.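 Test compounds were applied to cells in 96-well plates for 48 hours at 5 doses. GI50 = concentration required for 50% inhibition of growth. TGI: total growth inhibition.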

Regarding `CCCCCCCCCC[C@H](O)[C@H]1CC[C@@H]([C@@H](O)CC[C@H](O)[C@@H]2CCC(CCCCCCC[C@@H](O)CC3=C[C@H](C)OC3=O)O2)O1` (stereo partly drawn), the GI50 was 8.82 µM in the test with SK-MEL-2 melanoma; 5.07 µM in the test on MDA-MB-435; 1.15 µM in the test with NCI-H460 lung; 1.87 µM with T-47D breast; 3.29 µM in the test on OVCAR-3 ovarian; 4.09 µM with OVCAR-8 ovarian. Moreover, the GI50 with OVCAR-5 ovarian was 12 µM. The TGI with SK-MEL-2 melanoma is 2.94 µM and 24.6 µM; in the test with HCC-2998 colon, 19 µM; in the test on NCI-H460 lung, 17.2 µM; in the test on T-47D breast, 17.6 µM; in the test with OVCAR-3 ovarian, 2.75 µM and 14.2 µM; in the test with OVCAR-5 ovarian it was 28.4 µM.
As to `CC(=O)O[C@@H]1CC[C@@]2(C)C(=O)C34C[C@@]5(C)C([C@@H](C)CCCC(C)C)CCC5(C)[C@](O)(O3)C(=O)[C@H]4C2C1(C)C` (stereo partly drawn), the TGI was determined as 37 µM with SK-MEL-2 melanoma; 35.2 µM with SR leukemia; 23.5 µM with HCC-2998 colon; 18.5 µM in the test with NCI-H460 lung; 25.1 µM in the test with OVCAR-3 ovarian; 32.9 µM in the test on OVCAR-8 ovarian. The same compound returned a TGI in the test on OVCAR-5 ovarian of 29.3 µM.
Consider `CN(C)c1ccc(/C=c2/c3cc(O)ccc3n3c2cc(-c2ccccc2)[n+]3C)cc1`, for which the TGI is 2.55 µM in the test with SK-MEL-2 melanoma; 4.41 µM with SR leukemia; more than 100 µM in the test on HCC-2998 colon; 2.29 µM in the test on MDA-MB-435; 2.03 µM in the test with OVCAR-8 ovarian; more than 100 µM with OVCAR-5 ovarian. Moreover, the GI50 in the test with OVCAR-5 ovarian was 6.04 µM.
As for `CCc1ncc(CO)n1Cc1cccc2ccccc12`, the TGI in the test with SK-MEL-2 melanoma, with MDA-MB-435, in the test with NCI-H460 lung, in the test with T-47D breast, with OVCAR-3 ovarian and with OVCAR-8 ovarian was more than 100 µM each time. Moreover, the TGI in the test with OVCAR-5 ovarian and in the test on BT-549 breast was more than 100 µM throughout.
In the case of `O=C(Cc1nc2ccccc2o1)C(=O)Nc1ccc(Cl)cc1Cl`, the TGI is more than 100 µM with SK-MEL-2 melanoma; 51.6 µM in the test on SR leukemia; more than 100 µM in the test with HCC-2998 colon; more than 100 µM with NCI-H460 lung; more than 100 µM with OVCAR-3 ovarian; more than 100 µM with OVCAR-8 ovarian. This compound also returned a TGI with OVCAR-5 ovarian of more than 100 µM.
On to `Nc1n[nH]c2ccc([C@@H]3Nc4ccc5cn[nH]c5c4[C@H]4C5CCC(C5)[C@@H]34)cc12` (stereo partly drawn), for which the GI50 is 0.621 µM in the test with SK-MEL-2 melanoma; 0.361 µM in the test with SR leukemia; 0.962 µM with HCC-2998 colon; 0.382 µM in the test with NCI-H460 lung; 0.402 µM in the test on T-47D breast; 0.346 µM in the test on OVCAR-3 ovarian. Besides, the GI50 in the test on OVCAR-8 ovarian is 0.606 µM; in the test with OVCAR-5 ovarian, 1.14 µM; in the test with BT-549 breast, 0.755 µM. Besides, the TGI is more than 100 µM in the test with SK-MEL-2 melanoma; more than 100 µM in the test on SR leukemia; more than 50.2 µM in the test on HCC-2998 colon; more than 100 µM in the test on NCI-H460 lung; more than 100 µM in the test with T-47D breast; 10.9 µM with OVCAR-3 ovarian. For the same compound, the results for the TGI in the test on OVCAR-8 ovarian, in the test on OVCAR-5 ovarian and with BT-549 breast were more than 100 µM, 99.3 µM and more than 65.8 µM, respectively.
Take `CCN(CC)CC(O)c1cc(-c2ccc(Cl)cc2)nc2c(C)c(Cl)ccc12` (stereo not drawn): the GI50 in the test on SK-MEL-2 melanoma was 2.1 µM; in the test on HCC-2998 colon it was 1.77 µM; in the test with MDA-MB-435 it was 1.74 µM; in the test on T-47D breast it was 1.59 µM; with OVCAR-3 ovarian, 1.51 µM; in the test on OVCAR-5 ovarian, 1.74 µM. Also, in the test with BT-549 breast, the GI50 is 2.27 µM. Also, the TGI in the test with SK-MEL-2 melanoma came out at 3.61 µM; with HCC-2998 colon it was 3.23 µM; with MDA-MB-435, 3.29 µM; with T-47D breast, 3.12 µM; in the test on OVCAR-3 ovarian it was 2.9 µM; in the test with OVCAR-5 ovarian, 3.37 µM. The compound further had a TGI in the test on BT-549 breast of 4.49 µM.
As for `COc1ccc(/C=C/C(=O)/C=C(O)/C=C/c2ccc(OC)c(OC)c2)cc1OC`, the GI50 is 13.8 µM in the test on SK-MEL-2 melanoma; 1.68 µM with SR leukemia; 14.5 µM in the test with HCC-2998 colon; 3.32 µM with MDA-MB-435; 4.6 µM in the test on NCI-H460 lung; 76.9 µM with T-47D breast. Moreover, the figures for the GI50 in the test with OVCAR-3 ovarian, in the test on OVCAR-8 ovarian and in the test on OVCAR-5 ovarian were 2.8 µM, 35.5 µM and 6.42 µM, respectively. Moreover, the TGI in the test with SK-MEL-2 melanoma is 63.1 µM; with SR leukemia, more than 100 µM; with HCC-2998 colon it was 34.9 µM; in the test on MDA-MB-435, more than 100 µM; in the test on NCI-H460 lung it was more than 100 µM; in the test with T-47D breast it was more than 100 µM. The figures for the TGI in the test with OVCAR-3 ovarian, in the test on OVCAR-8 ovarian and in the test with OVCAR-5 ovarian were more than 100 µM, 95.9 µM and 46.4 µM, respectively.
Take `CC1=C(C(=O)Nc2ccc(C)cc2)C(c2cccc([N+](=O)[O-])c2)C(C(=O)Nc2ccc(C)cc2)=C(C)N1`: the TGI is 54.8 µM in the test with SK-MEL-2 melanoma; 65.6 µM in the test with SR leukemia; more than 100 µM in the test on HCC-2998 colon; 60.8 µM with NCI-H460 lung; 95.5 µM in the test with OVCAR-3 ovarian; more than 100 µM with OVCAR-8 ovarian. Further, the TGI in the test with OVCAR-5 ovarian was more than 100 µM.
Take `N#CCCN(c1ccc(C=O)cc1)S(=O)(=O)c1ccccc1`: the TGI in the test on SK-MEL-2 melanoma, in the test on SR leukemia, in the test on HCC-2998 colon, with NCI-H460 lung, in the test with OVCAR-3 ovarian and in the test with OVCAR-8 ovarian was more than 100 µM each time. This compound registered a TGI in the test with OVCAR-5 ovarian of more than 100 µM.
For the compound `CC(=O)Nc1ccc(C2=N/C(=C\c3ccc(Cl)cc3)C(=O)O2)cc1`, the TGI was more than 100 µM in the test on SK-MEL-2 melanoma; 61.2 µM in the test on SR leukemia; 38.5 µM in the test with HCC-2998 colon; more than 100 µM in the test on NCI-H460 lung; 86.7 µM with OVCAR-3 ovarian; more than 100 µM in the test with OVCAR-8 ovarian. The TGI with OVCAR-5 ovarian is more than 100 µM.
In the case of `COC(=O)C(C(=O)C(=O)Nc1ccccc1C)c1nc2ccc([N+](=O)[O-])cc2[nH]c1=O` (stereo not drawn), the TGI in the test on SK-MEL-2 melanoma, with SR leukemia, in the test on HCC-2998 colon, in the test with NCI-H460 lung, with OVCAR-3 ovarian and with OVCAR-8 ovarian was more than 100 µM in each case. Besides, the TGI with OVCAR-5 ovarian was more than 100 µM.
On to `COC(=O)c1c2c(c(C)[n+]([O-])c1C)C(=O)C(NCc1ccc(O)cc1)=CC2=O`, for which the GI50 with SK-MEL-2 melanoma was 1.79 µM; with SR leukemia, 1.83 µM; in the test with HCC-2998 colon, 1.46 µM; in the test on MDA-MB-435, 1.68 µM; in the test on NCI-H460 lung it was 1.58 µM; with OVCAR-3 ovarian, 0.266 µM. The values for the GI50 in the test with OVCAR-8 ovarian, in the test with OVCAR-5 ovarian and with BT-549 breast were 1.08 µM, 1.77 µM and 1.43 µM, respectively. For the same compound, the TGI with SK-MEL-2 melanoma was 3.72 µM; in the test with SR leukemia, 6.51 µM; with HCC-2998 colon it was 3.23 µM; in the test with MDA-MB-435, 3.19 µM; in the test with NCI-H460 lung, 3.35 µM; in the test on OVCAR-3 ovarian, 0.82 µM. The TGI in the test with OVCAR-8 ovarian stood at 6.47 µM; in the test with OVCAR-5 ovarian, 3.36 µM; with BT-549 breast, 2.91 µM.
